The source of these data is US10993448B2, “Method for sanitizing fresh produce” (Dole Fresh Vegetables, Inc., priority 2014, dated 2021).

Several values for one entry are separate records, joined by “and”; a condition that tells them apart may be missing. Equal values may be shown once. Read-outs that look alike come from different tables or passages of the source.

The test system of one assay is Non-selective mix. The experiment in a line: Suspension tests, non-selective agar. It is filed as cell-based, E. coli O157:H7, sv. Typhimurium, and Listeria monocytogenes. More on the design: key to Average log reduction: * indicates a sample in which no bacteria grew, so no fold reduction may be calculated. The following applies: for Average log reduction: vs water control.

Assay [1] relates to Listeria monocytogenes. It is filed as cell-based.
A further assay deals with Salmonella. Put plainly: Suspension tests, Salmonella. Format: cell-based, sv. Typhimurium. Also on record: key to Average log reduction: * indicates a sample in which no bacteria grew, so no fold reduction may be calculated. The following applies: for Average log reduction: vs water control.
For assay [2], the system named is background microbial load (LB load). The experiment in a line: Log reduction analysis of background bacteria on inoculated Romaine lettuce. It is filed as cell-based. The following applies: after each dip, in log units, No treatment 4.81.
The test system of assay [3] is Listeria monocytogenes. Put plainly: Suspension tests, Listeria. It is filed as cell-based. Also on record: key to Average log reduction: * indicates a sample in which no bacteria grew, so no fold reduction may be calculated. The following applies: for Average log reduction: vs water control.
The next assay concerns E. coli O157:H7. The experiment in a line: Suspension tests, E. coli. It is filed as cell-based. More on the design: key to Average log reduction: * indicates a sample in which no bacteria grew, so no fold reduction may be calculated. The following applies: for Average log reduction: vs water control.
Assay [4] concerns microbial load (APC) of chopped Romaine lettuce. It is filed as cell-based.
Assay [5] has as its system microbial load (Total Aerobic Plate Count) of raw, unwashed leafy vegetables. Format: cell-based.
Assay [6] deals with background microflora in wash water. Put plainly: Reduction of bacteria from wash water using ozone. It is filed as cell-based. An excerpt: Water containing high levels of background microflora was generated by dipping 200 g of lettuce in 2 L of water for 20 seconds. This lettuce was discarded and another 200 g of lettuce was dipped in the same water for 20 seconds. This was repeated for a total of 10 dips (referred to as Control in Table 34 below). Water with dissolved Ozone was then generated using a ClearWater Tech MSW245 Mobile Ozone Generator (San Luis Obispo, Calif.). The control microflora containing water was then mixed with this ‘Ozonated water’ at various mix levels ranging from 10 to 60% of the ozonated water with the control microflora containing water. First, 10% ozonated water was blended with 90% microflora containing water and after 20 seconds, 100 ml of water was removed into a sterile water sample bottle. This protocol was repeated in triplicate, as well as testing 20%, 30%, 40%, 50%, and 60% blends of ozonated water combined with the microflora containing water. In addition, 200 g of lettuce was added to the ozonated solution for 20 seconds and 100 ml of water was then collected in a sterile water sample bottle. This was also repeated in triplicate. The samples were serially diluted using PB as the diluent and plated on Total Plate Count agar. The plates were incubated for 48 hours at 30° C. for enumeration of the bacteria present following treatment.
The theoretical dilution reduction in Table 34 was calculated based on the number of cells that would be present if they were diluted in water or buffer (i.e. not a solution that would cause cell death or injury).

For the molecule `[O][Cl+][O-]` [ClO2 dip, chlorine dioxide], the “% bacteria killed” value in the assay with Non-selective mix is given as 100.000%; in the assay on Non-selective mix (30 seconds at 4° C., listed as 10 ppm chlorine dioxide) it was 100%; in the assay on Non-selective mix (30 seconds at 4° C., listed as Chlorine dioxide (10 ppm)), 100%; with Non-selective mix (30 seconds at 15° C., listed as 10 ppm chlorine dioxide), 100%; in the assay with Non-selective mix (30 seconds at 15° C., listed as Chlorine dioxide (10 ppm)) it was 100%; with Non-selective mix (30 seconds at 40° C., listed as 10 ppm chlorine dioxide), 99.9988%. For the same molecule, the “% bacteria killed” value in the assay with Non-selective mix (30 seconds at 40° C., listed as Chlorine dioxide (10 ppm)) was 99.9988%; in the assay with Non-selective mix (90 seconds at 4° C., listed as 10 ppm chlorine dioxide), 100%; in the assay on Non-selective mix (90 seconds at 4° C., listed as Chlorine dioxide (10 ppm)), 100%; in the assay on Non-selective mix (90 seconds at 15° C., listed as 10 ppm chlorine dioxide) it was 99.9998%; in the assay with Non-selective mix (90 seconds at 15° C., listed as Chlorine dioxide (10 ppm)), 99.9998%; with Non-selective mix (90 seconds at 40° C., listed as 10 ppm chlorine dioxide), 99.2623%. Moreover, the “% bacteria killed” value in the assay with Non-selective mix (90 seconds at 40° C., listed as Chlorine dioxide (10 ppm)) is 99.2623%; with Salmonella (30 seconds at 4° C.), 100%; in the assay on Salmonella (30 seconds at 15° C.) it was 100%; with Salmonella (30 seconds at 40° C.) it was 99.9995%; in the assay with Salmonella (90 seconds at 4° C.), 100%; in the assay on Salmonella (90 seconds at 15° C.) it was 100%. Also, the “% bacteria killed” value in the assay on Salmonella (90 seconds at 40° C.) is 99.4879%; with Listeria monocytogenes [3] (30 seconds at 4° C.), 100%; in the assay on Listeria monocytogenes [3] (30 seconds at 15° C.) it was 100%; with Listeria monocytogenes [3] (30 seconds at 40° C.), 99.9999%; in the assay on Listeria monocytogenes [3] (90 seconds at 4° C.) it was 100%; in the assay on Listeria monocytogenes [3] (90 seconds at 15° C.), 100%. Moreover, the “% bacteria killed” value in the assay with Listeria monocytogenes [3] (90 seconds at 40° C.) is 96.080%; in the assay on E. coli O157:H7 (30 seconds at 4° C.), 100%; with E. coli O157:H7 (30 seconds at 15° C.) it was 100%; with E. coli O157:H7 (30 seconds at 40° C.), 99.9993%; in the assay on E. coli O157:H7 (90 seconds at 4° C.), 100%; in the assay with E. coli O157:H7 (90 seconds at 15° C.) it was 100%. Besides, in the assay with E. coli O157:H7 (90 seconds at 40° C.), the “% bacteria killed” value is given as 99.1083%. Also, the “Average (bacterial load)” value in the assay on Non-selective mix (30 seconds at 4° C., Water 1.00 × 10^7) is 0.00; with Non-selective mix (30 seconds at 15° C., Water 8.46 × 10^6), 0.00; in the assay on Non-selective mix (30 seconds at 40° C., Water 8.30 × 10^6), 1.00 × 10^2; in the assay with Non-selective mix (90 seconds at 4° C., Water 6.22 × 10^6) it was 2.00 × 10^0; in the assay on Non-selective mix (90 seconds at 15° C., Water 1.21 × 10^7), 2.00 × 10^1; with Non-selective mix (90 seconds at 40° C., Water 9.76 × 10^6), 7.20 × 10^4. Also, the “Average (bacterial load)” value is reported as 0.00 in the assay on Salmonella (30 seconds at 4° C., Water 5.32 × 10^6); 0.00 with Salmonella (30 seconds at 15° C., Water 2.70 × 10^6); 2.20 × 10^1 in the assay on Salmonella (30 seconds at 40° C., Water 4.36 × 10^6); 0.00 with Salmonella (90 seconds at 4° C., Water 1.57 × 10^6); 0.00 with Salmonella (90 seconds at 15° C., Water 4.54 × 10^6); 3.80 × 10^4 in the assay with Salmonella (90 seconds at 40° C., Water 7.42 × 10^6). Also, the “Average (bacterial load)” value is recorded as 0.00 with Listeria monocytogenes [3] (30 seconds at 4° C., Water 4.96 × 10^5); 0.00 with Listeria monocytogenes [3] (30 seconds at 15° C., Water 2.24 × 10^6); 2.00 × 10^0 in the assay with Listeria monocytogenes [3] (30 seconds at 40° C., Water 2.32 × 10^6); 0.00 in the assay on Listeria monocytogenes [3] (90 seconds at 4° C., Water 2.06 × 10^5); 0.00 in the assay with Listeria monocytogenes [3] (90 seconds at 15° C., Water 7.14 × 10^4); 9.80 × 10^4 in the assay on Listeria monocytogenes [3] (90 seconds at 40° C., Water 2.50 × 10^6). The “Average (bacterial load)” value with E. coli O157:H7 (30 seconds at 4° C., Water 5.72 × 10^6) is reported as 0.00; in the assay with E. coli O157:H7 (30 seconds at 15° C., Water 5.96 × 10^6), 0.00; in the assay on E. coli O157:H7 (30 seconds at 40° C., Water 3.22 × 10^6), 2.20 × 10^1; in the assay with E. coli O157:H7 (90 seconds at 4° C., Water 3.96 × 10^6), 0.00; in the assay on E. coli O157:H7 (90 seconds at 15° C., Water 5.74 × 10^6), 0.00; with E. coli O157:H7 (90 seconds at 40° C., Water 3.14 × 10^6), 2.80 × 10^4. Also, the Average log reduction entry in the assay with Non-selective mix (30 seconds at 4° C.) is “*”; with Non-selective mix (30 seconds at 15° C.), “*”; in the assay on Non-selective mix (30 seconds at 40° C.), 4.92; with Non-selective mix (90 seconds at 4° C.) it was 6.49; in the assay with Non-selective mix (90 seconds at 15° C.) it was 5.78; with Non-selective mix (90 seconds at 40° C.), 2.13. The Average log reduction result in the assay on Salmonella (30 seconds at 4° C.) was “*”; in the assay with Salmonella (30 seconds at 15° C.) it was “*”; in the assay on Salmonella (30 seconds at 40° C.), 5.30; in the assay with Salmonella (90 seconds at 4° C.), “*”; in the assay on Salmonella (90 seconds at 15° C.) it was “*”; with Salmonella (90 seconds at 40° C.) it was 2.29. The Average log reduction entry in the assay with Listeria monocytogenes [3] (30 seconds at 4° C.) was “*”; with Listeria monocytogenes [3] (30 seconds at 15° C.), “*”; in the assay with Listeria monocytogenes [3] (30 seconds at 40° C.) it was 6.06; in the assay on Listeria monocytogenes [3] (90 seconds at 4° C.), “*”; with Listeria monocytogenes [3] (90 seconds at 15° C.), “*”; in the assay with Listeria monocytogenes [3] (90 seconds at 40° C.) it was 1.41. Also, the Average log reduction entry in the assay with E. coli O157:H7 (30 seconds at 4° C.) is listed as “*”; in the assay with E. coli O157:H7 (30 seconds at 15° C.) it was “*”; in the assay with E. coli O157:H7 (30 seconds at 40° C.), 5.17; in the assay with E. coli O157:H7 (90 seconds at 4° C.) it was “*”; with E. coli O157:H7 (90 seconds at 15° C.), “*”; with E. coli O157:H7 (90 seconds at 40° C.) it was 2.05. Besides, the “Listeria Load (%)” value with Listeria monocytogenes [1] was 2.87% and 4.29%. Also, the “Avg. Bacterial Load” value in [2] (Treatment 1 (ClO2, Cl2, PAA)) turned out to be 1.56; in assay [2] (Treatment 2 (ClO2, PAA, Cl2)), 2.41.

`CC(=O)OO` [PAA, peroxyacetic acid]: in [4], the “log unit reduction in microbial load after each individual step” value worked out at 2.4 log unit.

As for `OO` [Treatment H2O2, hydrogen peroxide], the “APC (CFU/g)” value in [5] is recorded as 5,800 CFU/g.

`O=[O+][O-]` [ozone solution, ozone]: the “Avg. CFU/ml” value in assay [6] (lettuce 20 sec in ozone solution, initial ozone 2.2 ppm, 20 sec in water 19266) is given as 6900 CFU/ml; in assay [6] (ozone solution (initial 1.8 ppm) mixed with microflora containing water, Control after 10 dips in water 300000, listed as 10% ozone solution, After mixing 10% ozone solution), 300000 CFU/ml; in [6] (ozone solution (initial 1.8 ppm) mixed with microflora containing water, Control after 10 dips in water 300000, listed as 20% ozone solution, After mixing 20% ozone solution), 185333 CFU/ml; in [6] (ozone solution (initial 1.8 ppm) mixed with microflora containing water, Control after 10 dips in water 300000, listed as 30% ozone solution, After mixing 30% ozone solution), 174667 CFU/ml; in [6] (ozone solution (initial 1.8 ppm) mixed with microflora containing water, Control after 10 dips in water 300000, listed as 40% ozone solution, After mixing 40% ozone solution), 121667 CFU/ml; in [6] (ozone solution (initial 1.8 ppm) mixed with microflora containing water, Control after 10 dips in water 300000, listed as 50% ozone solution, After mixing 50% ozone solution), 87667 CFU/ml. For the same molecule, the “Avg. CFU/ml” value in assay [6] (ozone solution (initial 1.8 ppm) mixed with microflora containing water, Control after 10 dips in water 300000, listed as 60% ozone solution, After mixing 60% ozone solution) is 70333 CFU/ml.
